Laboratory results from US11020399B2, “Intermediates useful in the synthesis of compounds as modulators of protein kinases” (Rhizen Pharmaceuticals SA, priority 2011, dated 2021).

Experiments:
Type in all cases: biochemical
PI3kβ = PI3kβ (Homo sapiens, UniProt P42338); assay: Fluorescent (HTRF) determination of PI3 kinase enzyme activity, PI3Kβ
Excerpt: (§1) Assay 1: Fluorescent Determination of PI3Kinase Kinase Enzyme Activity
(§2) Phosphoinositide 3 kinases (PI3K) belong to a class of lipid kinases that play a critical role in the regulation of several key cellular processes. The PI3K are capable of phosphorylating the 3-hydroxy position of phosphoinositols thereby generating second messengers involved in downstream signalling events. The homogenous time resolved fluorescence (HTRF) assay allows detection of 3,4,5-triphosphate (PIP3) formed as a result of phosphorylation of phosphotidylinositol 4,5-biphosphate (PIP2) by PI3K isoforms such as α, β, γ or δ. PI3K isoform activity for a, p, y or 8 was determined using a PI3K human HTRF™ Assay Kit (Millipore, Billerica, Mass.) with modifications. All incubations were carried out at room temperature. Briefly, 0.5 μl of 40× inhibitor (in 100% DMSO) or 100% DMSO were added to each well of a 384-well black plate (Greiner Bio-One, Monroe, N.C.) containing 14.5 μl IX reaction buffer /PIP2 (10 mM MgCl2, 5 mM DTT, 1.38 μM PIP2) mix with or without enzyme and incubated for 10 min. After the initial incubation, 5 μl/well of 400 μM ATP was added and incubated for an additional 30 minutes. Reaction was terminated by adding 5 μl/well stop solution (Millipore, Billerica, Mass.). Five microliters of detection mix (Millipore, Billerica, Mass.) were then added to each well and was incubated for 6-18 h in the dark. HRTF ratio was measured on a microplate reader (BMG Labtech., Germany) at an excitation wavelength of 337 nm and emission wavelengths of 665 and 620 nm with an integration time of 400 μsec.
(§3) Data were analyzed using Graphpad Prism (Graphpad software; San Diego Calif.) for IC50 determination. Examples 1-59 were tested at 1 uM for Pi3kα & Pi3k β and at 0.3 uM for γ and δ. Examples 60-137 were tested at 1 uM for Pi3kα & Pi3k β and at 0.1 uM for γ and δ. Percent inhibition was calculated based on the values for the blank and enzyme controls. The results are as provided in Table 2 (wherein D=0 to 25%; C=>25 to 50%; B=>50 to 75%; A=>75 to 100%; +++++=≤50 nM; ++++=>50 to ≤100 nM; +++=>100 to ≤300 nM; ++=>300 to ≤500 nM; +=>500 nM)

PI3kδ = PI3kδ (Homo sapiens, UniProt O00329); assay: Fluorescent (HTRF) determination of PI3 kinase enzyme activity, PI3Kδ; conditions: for inhibition at 0.1 µM / % inhibition (PI3kδ) 100 nM: 100 nM (Examples 60-137); for inhibition at 0.3 µM: 300 nM (Examples 1-59)
Chain of PI3kδ (O00329 whole entry): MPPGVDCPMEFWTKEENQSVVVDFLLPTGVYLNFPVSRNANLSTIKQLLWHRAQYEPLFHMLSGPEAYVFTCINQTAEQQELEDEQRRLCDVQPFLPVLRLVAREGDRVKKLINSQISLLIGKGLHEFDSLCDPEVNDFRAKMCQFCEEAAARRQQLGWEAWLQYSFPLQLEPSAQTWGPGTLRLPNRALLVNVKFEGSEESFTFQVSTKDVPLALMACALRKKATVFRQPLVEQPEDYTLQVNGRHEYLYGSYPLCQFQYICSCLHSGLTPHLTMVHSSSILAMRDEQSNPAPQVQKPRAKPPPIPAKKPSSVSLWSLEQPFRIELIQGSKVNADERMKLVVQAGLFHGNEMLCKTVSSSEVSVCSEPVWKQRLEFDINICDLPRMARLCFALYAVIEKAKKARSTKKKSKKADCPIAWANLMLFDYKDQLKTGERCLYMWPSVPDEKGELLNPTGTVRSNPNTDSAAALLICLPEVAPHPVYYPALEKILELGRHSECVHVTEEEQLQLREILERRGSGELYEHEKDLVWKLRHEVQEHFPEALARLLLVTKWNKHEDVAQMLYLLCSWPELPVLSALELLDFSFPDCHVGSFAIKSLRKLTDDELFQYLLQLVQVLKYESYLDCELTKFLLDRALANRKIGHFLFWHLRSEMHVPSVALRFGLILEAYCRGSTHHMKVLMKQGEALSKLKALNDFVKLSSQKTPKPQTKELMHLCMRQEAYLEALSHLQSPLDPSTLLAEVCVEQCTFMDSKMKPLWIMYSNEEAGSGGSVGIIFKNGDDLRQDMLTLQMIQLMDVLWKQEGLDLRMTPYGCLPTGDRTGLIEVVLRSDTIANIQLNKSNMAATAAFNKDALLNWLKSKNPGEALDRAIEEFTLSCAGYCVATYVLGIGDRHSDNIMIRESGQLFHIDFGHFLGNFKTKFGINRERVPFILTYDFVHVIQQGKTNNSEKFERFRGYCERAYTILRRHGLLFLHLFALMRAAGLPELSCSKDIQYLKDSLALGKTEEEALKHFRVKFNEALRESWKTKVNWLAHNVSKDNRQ
Chain of PI3kδ (P27986 whole entry partner): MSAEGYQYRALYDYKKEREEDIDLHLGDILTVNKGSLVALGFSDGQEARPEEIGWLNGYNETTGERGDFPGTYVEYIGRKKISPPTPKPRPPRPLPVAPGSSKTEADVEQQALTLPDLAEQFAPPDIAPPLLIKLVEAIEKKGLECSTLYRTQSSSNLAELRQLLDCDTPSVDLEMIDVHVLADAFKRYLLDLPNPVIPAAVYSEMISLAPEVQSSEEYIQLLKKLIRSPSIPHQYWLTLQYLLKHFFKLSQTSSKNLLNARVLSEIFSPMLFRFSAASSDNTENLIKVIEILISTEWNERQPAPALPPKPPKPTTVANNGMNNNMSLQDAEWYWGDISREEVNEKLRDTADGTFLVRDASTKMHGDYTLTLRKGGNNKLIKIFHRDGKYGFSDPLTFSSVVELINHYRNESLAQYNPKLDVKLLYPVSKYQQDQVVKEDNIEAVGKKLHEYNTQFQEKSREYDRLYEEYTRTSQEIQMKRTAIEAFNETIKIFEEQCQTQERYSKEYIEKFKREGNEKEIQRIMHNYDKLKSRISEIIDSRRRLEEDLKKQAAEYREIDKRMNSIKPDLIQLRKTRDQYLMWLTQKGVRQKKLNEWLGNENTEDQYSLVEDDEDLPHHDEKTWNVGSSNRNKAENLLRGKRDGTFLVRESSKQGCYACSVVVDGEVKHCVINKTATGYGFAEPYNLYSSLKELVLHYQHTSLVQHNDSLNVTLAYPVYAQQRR
Excerpt: as §1, §2, §3

PI3kα = PI3kα (Homo sapiens, UniProt P42336); assay: Fluorescent (HTRF) determination of PI3 kinase enzyme activity, PI3Kα
Chain of PI3kα (P42336 whole entry): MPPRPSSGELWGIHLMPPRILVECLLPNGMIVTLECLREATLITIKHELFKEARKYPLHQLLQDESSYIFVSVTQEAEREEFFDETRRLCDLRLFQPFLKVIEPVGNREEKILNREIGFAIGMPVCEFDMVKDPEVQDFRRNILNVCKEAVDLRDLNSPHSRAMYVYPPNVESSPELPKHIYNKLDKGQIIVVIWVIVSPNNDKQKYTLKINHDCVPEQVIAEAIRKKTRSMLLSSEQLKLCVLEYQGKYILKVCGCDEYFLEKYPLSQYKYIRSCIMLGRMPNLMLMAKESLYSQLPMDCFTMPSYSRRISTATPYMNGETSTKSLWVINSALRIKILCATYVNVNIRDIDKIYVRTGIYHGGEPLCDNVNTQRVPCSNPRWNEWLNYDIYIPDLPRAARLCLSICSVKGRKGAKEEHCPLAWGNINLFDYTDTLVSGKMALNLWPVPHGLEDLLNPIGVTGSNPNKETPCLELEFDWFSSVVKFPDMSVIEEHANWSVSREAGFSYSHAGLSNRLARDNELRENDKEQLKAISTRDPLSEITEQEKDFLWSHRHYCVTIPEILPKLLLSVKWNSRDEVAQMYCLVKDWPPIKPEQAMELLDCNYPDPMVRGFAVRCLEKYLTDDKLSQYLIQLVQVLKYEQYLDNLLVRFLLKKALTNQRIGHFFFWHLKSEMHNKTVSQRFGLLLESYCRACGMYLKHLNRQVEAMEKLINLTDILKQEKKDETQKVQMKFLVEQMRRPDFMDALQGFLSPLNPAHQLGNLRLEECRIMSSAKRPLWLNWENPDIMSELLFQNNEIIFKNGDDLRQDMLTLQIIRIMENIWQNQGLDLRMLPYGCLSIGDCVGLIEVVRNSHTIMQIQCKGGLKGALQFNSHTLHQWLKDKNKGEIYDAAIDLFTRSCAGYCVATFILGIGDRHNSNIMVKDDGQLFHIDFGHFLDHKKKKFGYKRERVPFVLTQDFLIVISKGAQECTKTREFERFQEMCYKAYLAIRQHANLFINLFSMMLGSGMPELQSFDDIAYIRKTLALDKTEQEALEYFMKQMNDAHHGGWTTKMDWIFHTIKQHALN
Chain of PI3kα (P27986 whole entry partner): as the sequence (P27986 whole entry partner) above
Excerpt: as §1, §2, §3

PI3kγ = PI3kγ (Homo sapiens, UniProt P48736); assay: Fluorescent (HTRF) determination of PI3 kinase enzyme activity, PI3Kγ; conditions: for inhibition at 0.1 µM / % inhibition (PI3kγ) 100 nM: 100 nM (Examples 60-137); for % inhibition (PI3kγ) 100 nM: 0.1 µM; for inhibition at 0.3 µM: 300 nM (Examples 1-59)
Chain of PI3kγ (P48736 whole entry): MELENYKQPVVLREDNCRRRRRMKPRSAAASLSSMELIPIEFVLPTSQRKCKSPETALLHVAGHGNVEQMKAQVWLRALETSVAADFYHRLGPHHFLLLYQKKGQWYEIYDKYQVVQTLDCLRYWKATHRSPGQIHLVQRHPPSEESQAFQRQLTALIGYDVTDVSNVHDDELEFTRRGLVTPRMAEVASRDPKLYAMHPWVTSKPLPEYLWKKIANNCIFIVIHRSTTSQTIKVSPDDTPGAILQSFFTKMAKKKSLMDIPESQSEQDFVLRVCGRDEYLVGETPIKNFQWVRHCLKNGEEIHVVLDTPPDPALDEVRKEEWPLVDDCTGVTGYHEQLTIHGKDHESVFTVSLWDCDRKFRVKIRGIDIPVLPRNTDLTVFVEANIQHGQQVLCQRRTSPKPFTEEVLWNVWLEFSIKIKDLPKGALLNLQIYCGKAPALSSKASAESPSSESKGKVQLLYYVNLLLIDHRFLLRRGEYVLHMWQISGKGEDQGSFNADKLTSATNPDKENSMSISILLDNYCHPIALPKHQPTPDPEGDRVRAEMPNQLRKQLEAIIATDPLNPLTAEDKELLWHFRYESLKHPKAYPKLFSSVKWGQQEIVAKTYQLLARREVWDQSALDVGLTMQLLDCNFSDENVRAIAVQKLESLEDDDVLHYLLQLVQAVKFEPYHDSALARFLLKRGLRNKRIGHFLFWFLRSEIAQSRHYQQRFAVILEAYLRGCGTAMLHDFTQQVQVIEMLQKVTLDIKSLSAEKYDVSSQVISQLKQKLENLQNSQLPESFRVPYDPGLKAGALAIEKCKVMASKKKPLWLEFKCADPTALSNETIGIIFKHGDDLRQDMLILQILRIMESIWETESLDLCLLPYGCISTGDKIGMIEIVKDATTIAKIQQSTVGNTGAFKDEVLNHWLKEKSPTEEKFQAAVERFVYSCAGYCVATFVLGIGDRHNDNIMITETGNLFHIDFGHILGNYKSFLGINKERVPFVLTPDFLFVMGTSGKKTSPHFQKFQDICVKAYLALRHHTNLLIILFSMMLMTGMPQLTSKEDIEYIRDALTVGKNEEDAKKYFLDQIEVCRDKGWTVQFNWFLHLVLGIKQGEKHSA
Excerpt: as §1, §2, §3

Chain of PI3kβ (P42338 whole entry): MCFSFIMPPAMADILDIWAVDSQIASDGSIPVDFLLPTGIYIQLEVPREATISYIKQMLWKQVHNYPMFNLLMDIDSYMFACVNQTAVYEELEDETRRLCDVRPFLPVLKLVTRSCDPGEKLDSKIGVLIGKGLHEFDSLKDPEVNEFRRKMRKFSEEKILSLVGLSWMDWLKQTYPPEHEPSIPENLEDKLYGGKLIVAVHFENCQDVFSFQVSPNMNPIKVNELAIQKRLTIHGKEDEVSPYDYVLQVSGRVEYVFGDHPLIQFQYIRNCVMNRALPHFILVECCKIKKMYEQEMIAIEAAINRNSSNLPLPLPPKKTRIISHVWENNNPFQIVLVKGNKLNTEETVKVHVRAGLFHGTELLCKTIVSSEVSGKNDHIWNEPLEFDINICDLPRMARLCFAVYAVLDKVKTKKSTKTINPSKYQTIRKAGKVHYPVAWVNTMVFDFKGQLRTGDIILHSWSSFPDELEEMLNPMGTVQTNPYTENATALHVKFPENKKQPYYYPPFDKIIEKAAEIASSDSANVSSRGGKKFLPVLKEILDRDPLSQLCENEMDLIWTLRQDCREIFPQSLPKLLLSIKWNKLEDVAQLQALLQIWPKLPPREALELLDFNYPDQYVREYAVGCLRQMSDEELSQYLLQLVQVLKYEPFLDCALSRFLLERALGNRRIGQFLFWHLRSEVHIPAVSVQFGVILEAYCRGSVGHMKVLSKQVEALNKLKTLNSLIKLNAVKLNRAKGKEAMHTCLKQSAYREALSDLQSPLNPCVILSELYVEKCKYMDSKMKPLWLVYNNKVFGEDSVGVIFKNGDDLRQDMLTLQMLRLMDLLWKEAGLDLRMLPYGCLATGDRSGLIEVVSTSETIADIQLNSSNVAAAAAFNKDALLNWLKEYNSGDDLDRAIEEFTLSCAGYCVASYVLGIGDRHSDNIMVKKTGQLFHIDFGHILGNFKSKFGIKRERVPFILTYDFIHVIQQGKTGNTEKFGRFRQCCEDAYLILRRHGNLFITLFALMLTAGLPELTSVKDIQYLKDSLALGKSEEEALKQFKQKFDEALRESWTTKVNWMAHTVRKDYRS
Chain of PI3kβ (P27986 whole entry partner): as the sequence (P27986 whole entry partner) above

Compound	inhibition at 1 µM (PI3kβ) [%]	% inhibition (PI3kα) 1 uM (PI3kα)	IC50 (PI3kδ) [nM]	IC50 (PI3kγ) [nM]	inhibition at 1 µM (PI3kα) [%]	inhibition at 0.3 µM (PI3kγ) [%]	also measured
CC(C)Oc1ccc(-c2nn(C(C)c3oc4cccc(F)c4c(=O)c3-c3ccc(F)cc3)c3ncnc(N)c23)cc1F (racemic) [Example 94, (S)/(R)-2-(1-(4-amino-3-(3-fluoro-4-isopropoxyphenyl)-1H-pyrazolo[3,4-d]pyrimidin-1-yl)ethyl)-5-fluoro-3-(4-fluorophenyl)-4H-chromen-4-one]	25 to 50	C (C=>25 to 50%)	–	–	–	–	inhibition at 0.1 µM (PI3kδ): 25 to 50%; inhibition at 0.1 µM (PI3kγ): 25 to 50%
CC(c1oc2cccc(F)c2c(=O)c1-c1ccccc1)n1nc(-c2ccc(OC(F)F)c(F)c2)c2c(N)ncnc21 (racemic) [Example 102, (S)/(R)-2-(1-(4-amino-3-(4-(difluoromethoxy)-3-fluorophenyl)-1H-pyrazolo[3,4-d]pyrimidin-1-yl)ethyl)-5-fluoro-3-phenyl-4H-chromen-4-one]	50 to 75	C (C=>25 to 50%)	–	–	–	–	inhibition at 0.1 µM (PI3kδ): 0 to 25%; inhibition at 0.1 µM (PI3kγ): 25 to 50%
CC(c1oc2cccc(F)c2c(=O)c1-c1cccc(F)c1)n1nc(-c2ccc(N3CCOCC3)c(Cl)c2)c2c(N)ncnc21 (racemic) [Example 126, (S)/(R)-2-(1-(4-amino-3-(3-chloro-4-morpholinophenyl)-1H-pyrazolo[3,4-d]pyrimidin-1-yl)ethyl)-5-fluoro-3-(3-fluorophenyl)-4H-chromen-4-one]	–	D (D=0 to 25%)	–	–	–	–	% inhibition (PI3kβ) 1 uM (PI3kβ): C (C=>25 to 50%); % inhibition (PI3kδ) 100 nM (PI3kδ): B (B=>50 to 75%); % inhibition (PI3kγ) 100 nM (PI3kγ): D (D=0 to 25%)
CC(c1oc2cccc(F)c2c(=O)c1-c1ccc(F)cc1)n1nc(-c2ccc(OC(F)F)c(F)c2)c2c(N)ncnc21 (single isomer, unassigned) [Example 97]	25 to 50	–	–	–	25 to 50	–	inhibition at 0.1 µM (PI3kδ): 25 to 50%; inhibition at 0.1 µM (PI3kγ): 25 to 50%
Cc1cc(-c2nn(C(C)c3oc4cccc(F)c4c(=O)c3-c3cccc(F)c3)c3ncnc(N)c23)ccc1OC(C)C (single isomer, unassigned; (-)) [Example 115, (−) 2-(1-(4-amino-3-(4-isopropoxy-3-methylphenyl)-1H-pyrazolo[3,4-d]pyrimidin-1-yl)ethyl)-5-fluoro-3-(3-fluorophenyl)-4H-chromen-4-one]	–	C (C=>25 to 50%)	–	–	–	–	% inhibition (PI3kβ) 1 uM (PI3kβ): D (D=0 to 25%); % inhibition (PI3kδ) 100 nM (PI3kδ; 0.1 µM): C (C=>25 to 50%); % inhibition (PI3kγ) 100 nM (PI3kγ): C (C=>25 to 50%)
CC(C)Oc1ccc(-c2nn(Cc3oc4cccc(F)c4c(=O)c3-c3cccc(F)c3)c3ncnc(N)c23)cc1F [Example 3, 2-((4-amino-3-(3-fluoro-4-isopropoxyphenyl)-1H-pyrazolo[3,4-d]pyrimidin-1-yl)methyl)-5-fluoro-3-(3-fluorophenyl)-4H-chromen-4-one]	0 to 25	–	50 to 100	100 to 300	25 to 50	50 to 75	inhibition at 0.3 µM (PI3kδ): 50 to 75%
Cc1n[nH]c2cc(-c3nn([C@H](C)c4oc5cccc(F)c5c(=O)c4-c4cccc(F)c4)c4ncnc(N)c34)ccc12 [Example 9b, (−)-2-(1-(4-amino-3-(3-methyl-1H-indazol-6-yl)-1H-pyrazolo[3,4-d]pyrimidin-1-yl)ethyl)-5-fluoro-3-(3-fluorophenyl)-4H-chromen-4-one]	25 to 50	–	300 to 500	300 to 500	0 to 25	–	–
CC(c1oc2cccc(F)c2c(=O)c1-c1cccc(F)c1)n1nc(-c2cn[nH]c2)c2c(N)ncnc21 (centres unmarked) [Example 10, 2-(1-(4-amino-3-(1H-pyrazol-4-yl)-1H-pyrazolo[3,4-d]pyrimidin-1-yl)ethyl)-5-fluoro-3-(3-fluorophenyl)-4H-chromen-4-one]	0 to 25	–	–	100 to 300	25 to 50	75 to 100	inhibition at 0.3 µM (PI3kδ): 25 to 50%

Further lines, with some results ahead:

inhibition at 1 µM (PI3kβ) [%]	% inhibition (PI3kα) 1 uM (PI3kα)	IC50 (PI3kδ) [nM]	IC50 (PI3kγ) [nM]	inhibition at 1 µM (PI3kα) [%]	inhibition at 0.3 µM (PI3kγ) [%]	Compound	also measured
–	B (B=>50 to 75%)	100 to 300	50 to 100	–	–	CC(C)Oc1ccc(-c2nn(C(C)c3oc4cccc(F)c4c(=O)c3-c3ccccc3)c3ncnc(N)c23)cc1F (racemic) [Example 100, (S)/(R)-2-(1-(4-amino-3-(3-fluoro-4-isopropoxyphenyl)-1H-pyrazolo[3,4-d]pyrimidin-1-yl)ethyl)-5-fluoro-3-phenyl-4H-chromen-4-one]	% inhibition (PI3kβ) 1 uM (PI3kβ): B (B=>50 to 75%); inhibition at 0.1 µM (PI3kδ): 25 to 50%; inhibition at 0.1 µM (PI3kγ): 50 to 75%
25 to 50	–	–	100 to 300	50 to 75	–	CC(C)Oc1ccc(-c2nn(C(C)c3oc4cccc(F)c4c(=O)c3-c3ccccc3)c3ncnc(N)c23)cc1F (single isomer, unassigned) [Example 101]	inhibition at 0.1 µM (PI3kδ): 0 to 25%; inhibition at 0.1 µM (PI3kγ): 50 to 75%
50 to 75	C (C=>25 to 50%)	≤ 50	≤ 50	–	–	CC(C)Oc1ccc(-c2nn(C(C)c3oc4cccc(F)c4c(=O)c3-c3cccc(F)c3)c3ncnc(N)c23)cc1F (single isomer, unassigned; (+)) [Example 7, (+)-2-(1-(4-amino-3-(3-fluoro-4-isopropoxyphenyl)-1H-pyrazolo[3,4-d]pyrimidin-1-yl)ethyl)-5-fluoro-3-(3-fluorophenyl)-4H-chromen-4-one]	–
–	D (D=0 to 25%)	≤ 50	≤ 50	–	–	CC(C)Oc1ccc(-c2nn(C(C)c3oc4cccc(F)c4c(=O)c3-c3cccc(F)c3)c3ncnc(N)c23)cc1F (single isomer, unassigned; (-)) [Example 8, (−)-2-(1-(4-amino-3-(3-fluoro-4-isopropoxyphenyl)-1H-pyrazolo[3,4-d]pyrimidin-1-yl)ethyl)-5-fluoro-3-(3-fluorophenyl)-4H-chromen-4-one]	IC50 (PI3kβ): 300 to 500 nM; % inhibition (PI3kβ) 1 uM (PI3kβ): B (B=>50 to 75%)
25 to 50	–	≤ 50	50 to 100	0 to 25	75 to 100	CC(C)Oc1ccc(-c2nn(C(C)c3oc4cccc(F)c4c(=O)c3-c3cccc(F)c3)c3ncnc(N)c23)cc1F (centres unmarked) [Example 6, 2-(1-(4-amino-3-(3-fluoro-4-isopropoxyphenyl)-1H-pyrazolo[3,4-d]pyrimidin-1-yl)ethyl)-5-fluoro-3-(3-fluorophenyl)-4H-chromen-4-one]	inhibition at 0.3 µM (PI3kδ): 75 to 100%; IC50 (PI3kα; numeric values): > 10000 nM
25 to 50	–	≤ 50	50 to 100	25 to 50	75 to 100	Cc1n[nH]c2cc(-c3nn(C(C)c4oc5cccc(F)c5c(=O)c4-c4cccc(F)c4)c4ncnc(N)c34)ccc12 (centres unmarked) [Example 9, 2-(1-(4-amino-3-(3-methyl-1H-indazol-6-yl)-1H-pyrazolo[3,4-d]pyrimidin-1-yl)ethyl)-5-fluoro-3-(3-fluorophenyl)-4H-chromen-4-one]	inhibition at 0.3 µM (PI3kδ): 75 to 100%
25 to 50	–	≤ 50	≤ 50	0 to 25	–	Cc1n[nH]c2cc(-c3nn([C@@H](C)c4oc5cccc(F)c5c(=O)c4-c4cccc(F)c4)c4ncnc(N)c34)ccc12 [Example 9a, (+)-2-(1-(4-amino-3-(3-methyl-1H-indazol-6-yl)-1H-pyrazolo[3,4-d]pyrimidin-1-yl)ethyl)-5-fluoro-3-(3-fluorophenyl)-4H-chromen-4-one]	–
25 to 50	–	–	≤ 50	0 to 25	75 to 100	CC(c1oc2cccc(F)c2c(=O)c1-c1cccc(F)c1)n1nc(-c2ccc(N3CCOCC3)c(F)c2)c2c(N)ncnc21 (centres unmarked) [Example 25, 2-(1-(4-amino-3-(3-fluoro-4-morpholinophenyl)-1H-pyrazolo[3,4-d]pyrimidin-1-yl)ethyl)-5-fluoro-3-(3-fluorophenyl)-4H-chromen-4-one]	–
25 to 50	–	–	50 to 100	0 to 25	75 to 100	Cc1nc2cc(-c3nn(C(C)c4oc5cccc(F)c5c(=O)c4-c4cccc(F)c4)c4ncnc(N)c34)ccc2[nH]1 (centres unmarked) [Example 26, 2-(1-(4-amino-3-(2-methyl-1H-benzo[d]imidazol-5-yl)-1H-pyrazolo[3,4-d]pyrimidin-1-yl)ethyl)-5-fluoro-3-(3-fluorophenyl)-4H-chromen-4-one]	–
